Test system: 786-O cells
Assay: Colony formation, 786-O isogenic cells
Type: cell-based, human
Method: Colony formation of parental (WT) or PBRM1 knockout (KO) 786-O cells expressing shRNA against non-targeting control (NC), RELA, or NFKB1 cultured with a) 10% or b) 2% serum. c) Gene expression changes of NF-κB target genes in 786-O cells treated with 0.006 μM bortezomib (BTZ) or 0.6 µM Bay 11-7085 for 24 hours (n=3 technical replicates). * p-value<0.05 (two-sided t-test). […] A positive log fold change refers to gain in bortezomib treatment over DMSO. g) Colony formation of 786-O isogenic cells and h) NCC432 isogenic cells treated with bortezomib for a week. Tumor formation of isogenic 786-O cells (i) and NCC432 cells (j) treated with PBS control or 0.5 mg/kg bortezomib (BTZ) in NSG mice. (n=10 tumors per group for 786-O, and n=16 tumors for NCC432 PBS EV group and 12 tumors for NCC432 PBS PBRM1 group and 14 tumors for both NCC432 EV and PBRM1 BTZ groups). Data are presented as mean values+/−SEM. k) Model for the study.
Data are presented as median+/−25%. […] Data are presented as mean values+/−SD. e) Tornado plots of RELA and SMARCA4 ChIP-seq signals in parental 786-0 or PBRM1-KO 786-O cells treated with DMSO or 0.005 μM bortezomib for 9 hours. f) Kaplan-Meier curves of NSG mice bearing 786-O isogenic cells treated with PBRM1 control or 0.5 mg/kg bortezomib (WT: n=10 PBS arm, median survival=39 days; n=10 bortezomib arm, median survival=52 days, HR=4.1, p=3E-6, log rank test; KO: n=10 PBS arm, median survival=35 days, n=10 bortezomib arm, median survival=66 days, HR=4.1, p=3E-6, log rank test). g) Kaplan-Meier curves of NSG mice bearing NCC432 isogenic cells treated with PBRM1 control or 0.5 mg/kg bortezomib (EV: n=16 PBS arm, median survival=42 days; n=14 bortezomib arm, median survival=49 days, HR=2.5, p=0.0009, log rank test; PBRM1: n=12 PBS arm, median survival=55 days; n=14 bortezomib arm, median survival=58 days, HR=1.2, p=0.5, log rank test). h) 786-O PBRM1 WT or KO cells were screened against the high-specific SGC epigenetic probe collection and cell viability was measured by colony formation after 1 week of treatment relative to DMSO control. […]

CC(C)C[C@H](NC(=O)[C@H](Cc1ccccc1)NC(=O)c1cnccn1)B(O)O [bortezomib]
reducing colony formation (786-O with and without PBRM1, vs DMSO): reducing colony formation
reduction of colony formation, PB1-deficient vs PB1-proficient isogenic cells (786-O, a week): preferential reduction of colony formation
